A word on the Km: it is the substrate concentration at which the rate is half of its maximum.

Km data for 1 compound are collected here from publication PMC10343464, “Identification and characterization of a novel aminoglycoside O-nucleotidyltransferase ANT(6)-If from Paenibacillus thiaminolyticus PATH554” (Frontiers in Microbiology, 2023).

SMILES strings stand for the structures.

The assay concerns T1, ANT(6)-If.
T1 construct: full-length ORF (855 bp, TTG start codon); 284 residues; His6 tag removed with thrombin; likely homodimer by clear-native PAGE
The assay is described as follows: coupled UDP-glucose pyrophosphorylase / phosphoglucomutase / G6PDH assay, NADPH at […] nm. The class given is biochemical, Paenibacillus thiaminolyticus. The conditions noted are these: 1 mM ATP, 10 mM MgCl2, 50 mM HEPES pH 7.5; temperature not given.

For `CN[C@@H]1[C@H](O[C@H]2[C@H](O[C@H]3[C@H](O)[C@@H](O)[C@H](N=C(N)N)[C@@H](O)[C@@H]3N=C(N)N)O[C@@H](C)[C@]2(O)C=O)O[C@@H](CO)[C@H](O)[C@H]1O` [streptomycin], the Km came out at 12.4 µM.
